Here are results for 52 substances from patent US20250332249A1, “CYTOM[…] CELL EPITOPES AND USES THEREOF” (LA JOLLA INSTITUTE FOR IMMUNOLOGY, priority 2021, published 2025).

The test system of the assay is PBMCs from HCMV seropositive subjects. Put plainly: ex vivo IFN-γ Fluorospot assay. It is filed as cell-based, human. The following applies: 19 HCMV seropositive subjects, individual peptide 10 ug/ml, 20 hr; for No. of subjects responding: IFN-γ; for Magnitude of response: IFN-γ spots (FIG. 1: SFC/10^6 PBMC; no unit in table). As to the method: To define the targets of HCMV-specific T cell epitopes recognized in healthy adults, the inventors screened PBMCs of 19 subjects, 10 males and 9 females, recruited from San Diego blood bank (SDBB). The HCMV seropositivity of all the subjects was confirmed by IgG ELISA (FIG. 6A). A total of 2593 HCMV peptides covering a total of 563 ORFs (1) were tested. However, as many of these predicted ORFs overlapped 100% with others, as they were internal to longer ORFs, these 563 contained 359 completely unique ORFs composed of ˜150“canonical” ORFs, and an additional ˜200 identified by ribosomal RNA profiling (1). These peptides corresponded to predicted dominant epitopes, based on a bioinformatic method that predicts promiscuous binding to HLA class II molecules (40). Each of the ORFs above was covered by multiple predicted epitopes (with a minimum of at least 2), with the exception of very small ORFs (less than 15-20 amino acid residues), in which case at least one peptide was synthetized. The 2593 peptides were arranged in 89 pools of 28-30 15-mer peptides. PBMC reactivity of each of the 89 pools was assayed directly ex vivo using an IFN-γ Fluorospot assay.
For the initial CMV ORF screen, the responses of 19 CMV-seropositive subjects were evaluated. PBMCs were stimulated with 89 pools covering 563 ORFs of HCMV. Each pool comprised of 28-30 15-mer peptides overlapping by 10 residues. PBMCs that were found reactive to a pool were further tested against individual peptides contained in the pool using IFN-γ Fluorospot assay.
PBMC were thawed, washed and counted for viability using the trypan blue exclusion method. 200,000 cells were plated in triplicates and stimulated with pools (2 ug/ml) or peptides (10 ug/ml), PHA (10 ug/ml) or medium containing equivalent amount of DMSO in 96-well plates (Immubilion-P, Millipore) previously coated with anti IFN-γ antibody (1-DIK, Mabtech, Stockholm, Sweden). After 20 hr incubation at 37° C., cells were discarded and wells were washed six times with PBS/0.05% Tween 20 using an automated plate washer and further incubated with IFN-γ antibody (7-B6-1-FS-BAM) for 2 hrs at room temperature. After incubation, wells were washed and incubated with fluorophore conjugated anti-BAM-490 antibody for 1 hr at room temperature. Finally, the plates were washed and incubated with fluorescence enhancer for 15 min, blotted dry and fluorescent spots were counted by computer assisted image analysis (IRIS Fluorospot reader, Mabtech, Sweden).
Each pool or peptide was considered positive compared to the background that had equivalent amount of DMSO based on the following criteria: (i) 20 or more spot forming cells (SFC) per 10^6 PBMC after background subtraction, (ii) the stimulation index greater than 2, and (iii) p<0.05 by student's t test or Poisson distribution test

Where no end group is shown, it is not given here.

Consider 219 (WFLVMREQAAIPQIY) [compound 219], for which the “No. of subjects responding” value is listed as 4 and the Magnitude of response amounted to 1100.
With 229 (TNIMLQVSNVTNHTL) [compound 229], the “No. of subjects responding” value is on record as 1 and the Magnitude of response is 58.
For 84 (QILWTDGLARRTRDR) [compound 84], the “No. of subjects responding” value turned out to be 1 and the Magnitude of response is reported as 37.
Turning to 205 (VVAYVILERLWLAAR) [compound 205], the “No. of subjects responding” value worked out at 1 and the Magnitude of response came out at 23.
Regarding 188 (MLRLLFTLVLLALYG) [compound 188], the “No. of subjects responding” value is 3 and the Magnitude of response amounted to 4593.
The like results for 32 (TGLVLLLLLLVVRLL) [compound 32] were, in that order, 1 and 1440.
The like results for “12 (ARRLWILSLLAVTLT; ends and bridges not checked) [compound 12]” were, in that order, 1 and 100.
Take “41 (GMKTVAFDLSSPQKS; ends and bridges not checked) [compound 41]”: the “No. of subjects responding” value worked out at 1 and the Magnitude of response is reported as 193.
In the case of 221 (DFRDLLNFIRQRLCC) [compound 221], the “No. of subjects responding” value came to 1 and the Magnitude of response amounted to 30.
For 90 (VELCLGAGAGHVVVV) [compound 90], in that order: 1 and 383.
As for “48 (RRRMVSVTLFSPYSV; ends and bridges not checked) [compound 48]”, the “No. of subjects responding” value amounted to 1 and the Magnitude of response is reported as 53.
As for “119 (APFRVAAAGETPLGR; ends and bridges not checked) [compound 119]”, the “No. of subjects responding” value was 6 and the Magnitude of response was 1089.
For the substance 212 (MNLVMLILALWAPVA) [compound 212], the “No. of subjects responding” value is on record as 1 and the Magnitude of response is 553.
The like results for 150 (CEIKPYVVNPVVATA) [compound 150] were, in that order, 3 and 2583.
With 214 (MLVVTVFDTTRLFEI) [compound 214], the “No. of subjects responding” value was determined as 1 and the Magnitude of response stood at 840.
For 52 (IQTMELMIRTVPRIT) [compound 52], in that order: 2 and 384.
Take 231 (YNRMVRFIINYVGKW) [compound 231]: the “No. of subjects responding” value came to 1 and the Magnitude of response is on record as 23.
As to 183 (IAITMVMRFWQYING) [compound 183], the “No. of subjects responding” value is given as 3 and the Magnitude of response turned out to be 163.
For 6 (GAGLRQLRQQLTVRW) [compound 6], in that order: 1 and 20.
Consider 156 (RVFCLSADWIRFLSL) [compound 156], for which the “No. of subjects responding” value is 2 and the Magnitude of response stood at 846.
For 202 (WKYAKKLNYHYFRLR) [compound 202], the “No. of subjects responding” value is 1 and the Magnitude of response is 237.
For 71 (RRSYAYIHTTYLLGS) [compound 71], in that order: 5 and 2730.
Take “40 (KELRMCLSFDSNYCR; ends and bridges not checked; cysteine pairing not given here) [compound 40]”: the “No. of subjects responding” value is recorded as 1 and the Magnitude of response came to 127.
The like results for 21 (ALALHFLTSRKGVTD) [compound 21] were, in that order, 1 and 40.
As for 191 (FYMNWTLRRSQTHYL) [compound 191], the “No. of subjects responding” value came to 6 and the Magnitude of response amounted to 16883.
For 215 (VCAFCWLVLPHRLEQ) [compound 215], in that order: 1 and 1960.
Take 187 (LHRRAAVSGRRSLLQ) [compound 187]: the “No. of subjects responding” value is 1 and the Magnitude of response is given as 87.
For 178 (YRNMIIHAATPVDLL) [compound 178], in that order: 2 and 130.
Take 100 (PKSFTLTRIHPEYIV) [compound 100]: the “No. of subjects responding” value was determined as 2 and the Magnitude of response came out at 340.
Consider “36 (SLQFIGLQRRDVVAL; ends and bridges not checked) [compound 36]”, for which the “No. of subjects responding” value was determined as 1 and the Magnitude of response is listed as 83.
The like results for “38 (RRTVLFNELMLWLGY; ends and bridges not checked) [compound 38]” were, in that order, 1 and 180.
For “135 (KTQIFNKLFTNRISV; ends and bridges not checked) [compound 135]”, the “No. of subjects responding” value came out at 1 and the Magnitude of response worked out at 1587.
The like results for 159 (SCTHPYVISLVTPLT) [compound 159] were, in that order, 1 and 80.
For 204 (FPSARDIPKQLPEQP) [compound 204], in that order: 1 and 27.
74 (NADKFFIFPNYTIVS) [compound 74]: the “No. of subjects responding” value is given as 4 and the Magnitude of response is on record as 5120.
In the case of 20 (IINYYYVAQKKARHM) [compound 20], the “No. of subjects responding” value is on record as 1 and the Magnitude of response amounted to 163.
On to 230 (IVVGLPFFLEYAKHH) [compound 230], for which the “No. of subjects responding” value is 2 and the Magnitude of response stood at 1250.
The like results for 190 (VVRFALYLETLSRIV) [compound 190] were, in that order, 2 and 123.
On to 234 (FIMRQLMMYPLVLPF) [compound 234], for which the “No. of subjects responding” value is given as 1 and the Magnitude of response was 530.
The like results for 105 (SWLGQMLRPVGLCTL) [compound 105] were, in that order, 1 and 43.
Regarding 29 (KRYFRPLLRAWSLGL) [compound 29], the “No. of subjects responding” value worked out at 4 and the Magnitude of response is given as 1388.
As for 199 (SSIFTSTHRGVIVAP) [compound 199], the “No. of subjects responding” value came to 1 and the Magnitude of response came to 27.
In the case of 148 (AGLMMMRRMRRAPAE) [compound 148], the “No. of subjects responding” value was determined as 1 and the Magnitude of response came out at 490.
For “35 (RAHIQKFERLHVRRF; ends and bridges not checked) [compound 35]”, in that order: 1 and 2523.
For 104 (SSCAHTTCRSATSLV) [compound 104], in that order: 2 and 104.
The like results for 194 (TRGYVRYTLSPKARL) [compound 194] were, in that order, 7 and 9337.
For 80 (ASCVTINQTSVKVLR) [compound 80], the “No. of subjects responding” value stood at 5 and the Magnitude of response was 8941.
For 76 (QLQFTYDTLRGYINR) [compound 76], in that order: 3 and 2236.
As for 144 (TFDVRQFVFDNARLV) [compound 144], the “No. of subjects responding” value is recorded as 6 and the Magnitude of response amounted to 13736.
As to 30 (HLLRNIKTAFGMRVL) [compound 30], the “No. of subjects responding” value is 2 and the Magnitude of response stood at 1093.
As to 93 (QTIYFLGLTALLLRY) [compound 93], the “No. of subjects responding” value is recorded as 1 and the Magnitude of response was determined as 583.
Take 147 (AVAFLNYSSSSSAVS) [compound 147]: the “No. of subjects responding” value was 3 and the Magnitude of response was found to be 2151.
